US20260130377A1 (SYNGENTA CROP PROTECTION AG, priority 2022, published 2026)

Columns and labels:
[1] = test system: a variety of fungal strains; conditions: quoted from WO2015191789, page 31; cited from earlier work
[2] = test system: Puccinia recondita; assay: wheat leaf disc assay, Puccinia recondita, curative spray timing; assay type: in vivo
Description: (§1) Cyclothiazomycin C was produced as disclosed in WO2015191789. A stock solution for cyclothiazomycin C was produced in DMSO (max. 10 mg/ml). Malonomicin was produced according to Law et al, 2018 (Nature Catalys is|VOL 1|DECEMBER 2018|977-984). A stock solution of malonomicin was produced in water plus 0.025% Tween20.
(§2) Assays to test efficacy of mixtures of cyclothiazomycin C in combination with malonomicin on the control of fungal pathogens in a leaf disc assay were designed for two plates.
(§3) A first set of master plates with 1× concentrated spray solution of the cyclothiazomycin C stock diluted in water with concentrations according to Table 11 or Table 12, respectively, was prepared. Each well contained 2% DMSO and 0.025% Tween20. Accordingly, a second set of master plates with 1× concentrated malonomicin stock diluted in water was prepared. Each well of the second set contained 0.025% Tween20. Leaf segments placed on agar in plates are sprayed with 8 ul of solution from the master plate containing cyclothiazomycin C and the leaf segments were let to dry, followed 2 hours later by 8 ul of solution from the master plate containing malonomicin. After second sprays have dried, leaf segments are infected with fungal spores to obtain a preventive application timing. Alternatively, leaf segments infected one day before spray of the compounds are used, resulting in a curative spray timing. In addition, several plates were produced where leaf segments were sprayed 2× in absence of test compound (with only DMSO and Tween20), representing the untreated check samples. For each leaf segment percent leaf coverage of disease symptoms was assessed. Percent leaf coverage reduction relative to the untreated check was calculated. Efficacy of the mixtures was tested in duplicate. Reported efficacy values are the average of two replicate results.
Puccinia recondita (EPPO Code: PUCCRE) with Curative Spray Timing.
Wheat (cultivar Kanzler) leaf segments are placed on agar in multiwell plates. The leaf disks are then inoculated with a spore suspension of the fungus. One day after inoculation the test solution is sprayed (8 ul per well). After appropriate incubation the activity of a compound is assessed 8 dpi (days after inoculation) as curative fungicidal activity

[3] = test system: Microdochium nivale; assay: liquid culture assay, 96 well plate, Microdochium nivale; assay type: cell-based
Description: (§4) Cyclothiazomycin C was produced as disclosed in WO2015191789. A stock solution for cyclothiazomycin C was produced in DMSO (max. 10 mg/ml). Malonomicin was produced according to Law et al, 2018 (Nature Catalys is|VOL 1|DECEMBER 2018|977-984). A stock solution of malonomicin was produced in water plus 0.025% Tween®20.
(§5) Assays to test efficacy of mixtures of cyclothiazomycin C in combination with malonomicin on the control of fungal pathogens in a liquid culture assay were designed for a 96 well plate.
(§6) A master plate with 10× concentrated solution of the compound stock solutions diluted in water plus 0.025% Tween20 was prepared. The concentration of DMSO (from the stock of cyclothiazomycin C) and Tween20 was kept constant in all cells of th the master plate. 10 μl was transferred from the master plate to a 96 well test plate. The nutrient broth containing the fungal spores/mycelia fragments was then added to the test plate to give an end concentration of 1× for the tested compounds (as outlined in Table 1). The test plates were incubated in the dark at 24° C. and 96% rh. The inhibition of fungal growth was determined photometrically after ca. 3 days, and percent fungal growth reduction relative to the untreated check was calculated. Efficacy of the mixtures was tested on different fungal species:
Microdochium nivale (EPPO Code: MONGNI)
(§7) Conidia of the fungus from cryogenic storage were directly mixed into nutrient broth (PDB: potato dextrose broth).

[4] = test system: Puccinia recondita; assay: wheat leaf disc assay, Puccinia recondita, preventive spray timing; assay type: in vivo
Description: as §1, §2, §3
Puccinia recondita (EPPO Code: PUCCRE) with Preventive Spray Timing.
Wheat (cultivar Kanzler) leaf segments are placed on agar in multiwell plates and sprayed with test solutions (8 ul per well). After drying, the leaf disks are inoculated with a spore suspension of the fungus. After appropriate incubation the activity of a compound is assessed 8 dpi (days after inoculation) as preventive fungicidal activity.

[5] = test system: Botrytis cinerea; assay: liquid culture assay, 96 well plate, Botrytis cinerea; assay type: cell-based
Description: as §4, §5, §6
Botrytis cinerea (EPPO Code: BOTRCI)
Conidia of the fungus from cryogenic storage were directly mixed into nutrient broth (Vogel's minimal media).

[6] = test system: Fusarium culmorum; assay: liquid culture assay, 96 well plate, Fusarium culmorum; assay type: cell-based
Description: as §4, §5, §6
Fusarium culmorum (EPPO Code: FUSACU)
as §7

[7] = test system: Zymoseptoria tritici; assay: liquid culture assay, 96 well plate, Zymoseptoria tritici; assay type: cell-based
Description: as §4, §5, §6
Zymoseptoria tritici (EPPO Code: SEPTTR)
as §7

[8] = test system: genus Bacillus; conditions: quoted from WO2015191789, page 31; cited from earlier work
[9] = cyclothiazomycin C 3.13 ppm solo
[10] = cyclothiazomycin C 6.25 ppm solo
[11] = cyclothiazomycin C 12.5 ppm solo
[12] = cyclothiazomycin C 100 ppm solo
[13] = cyclothiazomycin C 200 ppm solo
[14] = cyclothiazomycin C 1.56 ppm solo
[15] = cyclothiazomycin C 3.125 ppm solo

C=C1NC(=O)CNC(=O)[C@H](CCCCN)NC(=O)[C@@]2(C)NC(=O)/C(=C/C)NC(=O)[C@H]3CSC(=N3)[C@@H](CC(N)=O)NC(=O)c3ccc(nc3[C@@H](C)NC(=O)[C@@H]3CCCN3C1=O)-c1nc(cs1)C1=N[C@H](CS1)C(=O)NC(=C)c1nc(cs1)-c1nc(cs1)C1=N[C@@H](CS1)C(=O)N[C@@H](C(=O)O)CS2 [cyclothiazomycin C]
growth inhibitory action toward a variety of fungal strains [1]: none was observed | control of fungal growth (% reduction of symtoms on the leaf segment) [2, 9]: 0% | control of fungal growth (% reduction of symtoms on the leaf segment) [2, 10]: 10% | control of fungal growth (% reduction of symtoms on the leaf segment) [2, 11]: 0% | control of fungal growth (% reduction of symtoms on the leaf segment) ([2]; cyclothiazomycin C 25 ppm solo): 0% | control of fungal growth (% reduction of symtoms on the leaf segment) ([2]; cyclothiazomycin C 50 ppm solo): 0% | control of fungal growth (% reduction of symtoms on the leaf segment) [2, 12]: 0% | control of fungal growth (% reduction of symtoms on the leaf segment) [2, 13]: 0% | control of fungal growth [3, 14]: 70% | control of fungal growth [3, 15]: 70% | control of fungal growth [3, 10]: 70% | control of fungal growth [3, 11]: 70% | control of fungal growth ([3]; cyclothiazomycin C 25 ppm solo): 90% | control of fungal growth ([3]; cyclothiazomycin C 50 ppm solo): 90% | control of fungal growth [3, 12]: 90% | control of fungal growth (% reduction of symtoms on the leaf segment) [4, 9]: 0% | control of fungal growth (% reduction of symtoms on the leaf segment) [4, 10]: 0% | control of fungal growth (% reduction of symtoms on the leaf segment) [4, 11]: 10% | control of fungal growth (% reduction of symtoms on the leaf segment) ([4]; cyclothiazomycin C 25 ppm solo): 95% | control of fungal growth (% reduction of symtoms on the leaf segment) ([4]; cyclothiazomycin C 50 ppm solo): 95% | control of fungal growth (% reduction of symtoms on the leaf segment) [4, 12]: 95% | control of fungal growth (% reduction of symtoms on the leaf segment) [4, 13]: 100% | control of fungal growth [5, 14]: 20% | control of fungal growth [5, 15]: 20% | control of fungal growth [5, 10]: 20% | control of fungal growth [5, 11]: 20% | control of fungal growth ([5]; cyclothiazomycin C 25 ppm solo): 20% | control of fungal growth ([5]; cyclothiazomycin C 50 ppm solo): 20% | control of fungal growth [5, 12]: 20% | control of fungal growth [6, 14]: 20% | control of fungal growth [6, 15]: 20% | control of fungal growth [6, 10]: 20% | control of fungal growth [6, 11]: 20% | control of fungal growth ([6]; cyclothiazomycin C 25 ppm solo): 20% | control of fungal growth ([6]; cyclothiazomycin C 50 ppm solo): 20% | control of fungal growth [6, 12]: 20% | control of fungal growth [7, 14]: 70% | control of fungal growth [7, 15]: 70% | control of fungal growth [7, 10]: 70% | control of fungal growth [7, 11]: 70% | control of fungal growth ([7]; cyclothiazomycin C 25 ppm solo): 90% | control of fungal growth ([7]; cyclothiazomycin C 50 ppm solo): 90% | control of fungal growth [7, 12]: 100% | antimicrobial inhibitory activity [8]: greatest inhibitory activity
